Data on 7 molecules can be found in PubChem BioAssay (NCI).

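Dose response: 5 concentrations. Exposure: 48 h. Format: 96-well plates. Endpoint: linear interpolation; highest concentration if not reached. GI50 marks 50% less growth. TGI: concentration producing complete growth inhibition.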

Common to all, as to test: NCI anticancer screen, dose series, 48 h
Test [1] has as its system BT-549 breast.
Test [2] deals with DU-145 prostate.
The test system of test [3] is HCC-2998 colon.
In test [4] the test system is KM12 colon.
The subject of test [5] is MALME-3M melanoma.
The test system of test [6] is NCI-H23 lung.
Test [7] relates to NCI-H522 lung.
Test [8] concerns OVCAR-4 ovarian.
Test [9] concerns SF-295 CNS.
Test [10] has as its system UACC-257 melanoma.

`CCOCCCn1c2c(c3c(O)cccc31)C(=O)c1ccccc1-2`: the GI50 is 29 µM in test [1]; 33.3 µM in test [2]; 22.1 µM in [3]; 16.6 µM in test [4]; 14.7 µM in test [5]; 19.1 µM in test [6]. Also, the GI50 was 14 µM in [7], 21.3 µM in test [8], 21.4 µM in test [9] and 27.8 µM in [10]. For the same molecule, the TGI was 87.8 µM in test [1]; more than 100 µM in test [2]; 64.3 µM in test [3]; 39.4 µM in [4]; 37.1 µM in test [5]; 53.2 µM in [6]. The TGI turned out to be 35.7 µM in [7], 69.3 µM in test [8], 55.3 µM in test [9] and 68.6 µM in [10].

Take `CC1C(C)N(C(=O)CCl)c2ccccc2N1C(=O)CCl` (stereo not given): the GI50 was 0.849 µM in test [1]; 0.472 µM in [2]; 1.69 µM in [3]; 0.55 µM in [4]; 0.365 µM in [5]; 0.705 µM in test [6]. The GI50 in test [7] is 0.162 µM; in test [8], 0.499 µM; in test [9], 1.45 µM; in [10] it was 0.723 µM. In addition, the TGI is 2.41 µM in [1]; 1.8 µM in test [2]; 3.23 µM in test [3]; 1.34 µM in test [4]; 1.32 µM in [5]; 2.68 µM in test [6]. Also, the TGI in [7] was determined as 0.347 µM; in test [8], 1.73 µM; in test [9] it was 3.06 µM; in [10], 3.16 µM.

Consider `COC(=O)[C@H](Cc1cnc[nH]1)NC(=O)[C@@H](NC(=O)Nc1cc(C(F)(F)F)cc(C(F)(F)F)c1)C(C)C`, for which the GI50 was 16.9 µM in test [1]; 17.8 µM in test [2]; 15.9 µM in test [3]; 18.4 µM in test [4]; 16.9 µM in [5]; 16.4 µM in test [6]. For the same molecule, the GI50 in test [7] was 13.1 µM; in test [8], 15 µM; in test [9] it was 16.1 µM; in [10], 15.7 µM. For the same molecule, the TGI in [1] stood at 33.3 µM; in test [2] it was 32.7 µM; in test [3], 30.7 µM; in test [4], 35.3 µM; in test [5], 32.2 µM; in [6], 31.7 µM. Moreover, the TGI was found to be 27 µM in test [7], 29 µM in test [8], 31.8 µM in test [9] and 29.9 µM in test [10].

On to `CC1=C2[C@@H](CC1)[C@]1(C)O[C@@](C(C)C)(C[C@H]1OC(=O)CO)[C@H]2OC(=O)C1CC1c1ccccc1` (stereo not given in full), for which the GI50 in [1] was 13.6 µM; in test [2], 14.6 µM; in test [3] it was 13.5 µM; in test [4], 12.9 µM; in test [5] it was 16.5 µM; in test [6] it was 14.2 µM. In addition, the GI50 was 12.7 µM in test [7], 13 µM in [8], 12 µM in test [9] and 17.3 µM in [10]. The TGI in [1] was 28.7 µM; in [2] it was 27.9 µM; in test [3], 29.4 µM; in test [4] it was 27.4 µM; in [5] it was 33.4 µM; in test [6] it was 32.4 µM. Further, the TGI amounted to 28 µM in [7], 26.9 µM in test [8], 24.7 µM in [9] and 32.4 µM in test [10].

On to `Nc1ccc(C2=CC(c3ccc(Cl)cc3)N3C=CSC3=N2)cc1` (stereo not given), for which the GI50 was 2.64 µM in test [1]; 5.11 µM in test [2]; 1.83 µM in test [3]; 1.95 µM in test [4]; 18.1 µM in [5]; 17.8 µM in test [6]. The GI50 in [7] was 3.51 µM; in test [8] it was 13 µM; in test [9], 13.1 µM; in test [10], 3.8 µM. In addition, the TGI in [1] amounted to 7 µM; in test [2] it was 16.9 µM; in test [3] it was 3.61 µM; in [4], 3.86 µM; in test [5], 47.8 µM; in [6] it was 46.8 µM. For the same molecule, the TGI in [7] is 11.3 µM; in test [8] it was more than 100 µM; in [9], 40.4 µM; in [10], 17 µM.

As to `O=C(/C=C\c1ccc([N+](=O)[O-])cc1)c1ccccc(=O)c1O`, the TGI in test [1] worked out at 6.17 µM; in test [2], 9.44 µM; in test [3], 5.6 µM; in test [4], 2.87 µM; in test [5], 3.08 µM; in [6], 12.4 µM. Besides, the TGI was 6.63 µM in test [7], 18.1 µM in test [8], 14.7 µM in test [9] and 7.85 µM in test [10].

Regarding `Nc1nc([Se])c2ncn(C3OC(CO)C(O)C3O)c2n1` (stereo not given), the GI50 in test [1] is 30.6 µM; in test [2], 3.31 µM; in test [3] it was 17.9 µM; in [4] it was 10.2 µM; in test [5] it was more than 100 µM; in [6] it was 5.05 µM. Moreover, the GI50 was 42.5 µM in [7], 27.4 µM in test [8], 3.95 µM in [9] and 37.5 µM in [10]. The TGI in test [1] is more than 100 µM; in test [2], more than 100 µM; in test [3] it was more than 100 µM; in test [4], 54.9 µM; in test [5] it was more than 100 µM; in [6], more than 100 µM. Besides, the TGI in test [7], in [8], in test [9] and in test [10] was more than 100 µM throughout.
